Measured values reported in article PMC8151276, “An Integrated Approach toward NanoBRET Tracers for Analysis of GPCR Ligand Engagement” (Molecules, 2021).

Assays:
[1] = molecular target: T1, C3AR1 (Homo sapiens, UniProt Q16581); test: NanoBRET screen HiBiT-C3AR1 in HEK293; type: binding
T1 construct: purchased Promega (in-house HiBiT-GPCR construct library, NanoBRET)
T1 sequence (Q16581 1-482): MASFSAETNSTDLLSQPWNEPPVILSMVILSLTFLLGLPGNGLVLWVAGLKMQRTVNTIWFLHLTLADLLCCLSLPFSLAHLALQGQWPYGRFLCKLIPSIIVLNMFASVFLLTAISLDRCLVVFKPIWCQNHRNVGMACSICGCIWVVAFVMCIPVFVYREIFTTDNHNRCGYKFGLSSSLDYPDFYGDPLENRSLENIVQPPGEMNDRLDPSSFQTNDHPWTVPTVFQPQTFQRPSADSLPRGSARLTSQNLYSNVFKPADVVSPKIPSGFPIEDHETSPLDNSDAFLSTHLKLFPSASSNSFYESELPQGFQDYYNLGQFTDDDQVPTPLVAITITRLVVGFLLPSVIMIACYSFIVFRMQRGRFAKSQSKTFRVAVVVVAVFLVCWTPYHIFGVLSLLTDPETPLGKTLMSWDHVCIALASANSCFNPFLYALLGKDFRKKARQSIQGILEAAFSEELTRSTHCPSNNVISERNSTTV
Procedure: (§1) Each tracer candidate was screened across the entire library of HiBiT-GPCR constructs using NanoBRET as the detection modality. As depicted in Figure 4A, the specificity of interactions was evaluated through decrease in BRET due to competitive displacement of a bound tracer by excess parental compound. Each tracer was analyzed for binding to each HiBiT-GPCR fusion in the absence and in the presence of competing parental compound. Briefly, HEK293 cells were transfected with HiBiT-GPCR constructs diluted into promoterless DNA to reduce expression and maximize translocation to the cell surface. Each tracer candidate was then screened at concentrations of 1 μM and 0.1 μM across cells expressing these fusions. Cells were treated for 1.5 h with tracer either alone or in the presence of 20 μM competing parental compound (i.e., control). BRET was measured upon addition of purified LgBiT and subsequent complementation with HiBiT genetically fused to a GPCR. The specificity of interactions was assessed through a decrease in BRET signal due to competitive displacement of the bound tracer. To further gauge the robustness of these interactions, the fold response over the control (i.e., BRETtracer/BRETcontrol) was calculated. We chose a 1.5-fold response, which translates to ≥7-fold signal over noise as the minimal threshold required to score an interaction as positive. […]. Below we highlight the screening results obtained for our exemplary fluorescent tracers based on Clozapine, Amitriptyline and AZD1283.
(§2) HiBiT-GPCR DNA constructs were diluted in 10 mM Tris pH 8 to a final concentration of 0.01 μg/μL, arrayed in 96-well plates and stored at −20 °C. For transfection, HEK293 cells were suspended in Opti-MEM (without phenol red) supplemented with 2% fetal bovine serum (Seradigm) and 100 units/mL penicillin–streptomycin (Gibco) at a final concentration of 220,000 cells/mL and dispensed into white 96-well plates at 90 μL/well. Subsequent transfections and screens were carried using an Agilent Bravo Automated Liquid Handling Platform. First, the 96-well HiBiT DNA arrays were diluted 25-fold in Opti-MEM (without serum or phenol red) to a final concentration of 0.0004 μg/μL and 20 μL of the diluted DNAs were transferred into new 96-well plates. Next, promoterless carrier DNA (1 μg/μL) was diluted 25-fold (0.04 μg/μL) and then dispensed into the diluted arrays at 20 μL/well. Following brief mixing, Viafect transfection reagent (Promega) diluted 16-fold into Opti-MEM was dispensed into the plates at 40 μL/well. After mixing by pipetting, plates were incubated for 10 min on the pipetting station deck. The DNA-transfection reagent complexes were then added to plates containing cells. To facilitate the screen, 10 μL of DNA-transfection reagent complexes were added in duplicates to the top 4 and bottom 4 rows, resulting in two identical 48-well arrays per plate. Plates with transfected cells were incubated for 18–20 h at 37 °C/5% CO2. A screen of each tracer across the entire library using two different concentrations requires duplicate plates of transfected cells. Depending on the number of tracers being screened, transfections can be scaled up using the same ratios. The next day, for each tracer, four 20× screening solutions in tracer dilution buffer (Promega) were prepared: two duplicates at final concentration of 20 μM and two duplicates at a final concentration of 2 μM. A competing unmodified compound was added to one of each duplicate at a final concentration of 400 μM. The four resulting solutions were diluted 4-fold in Opti-MEM without serum or phenol red to generate 5× solutions (5 µM and 0.5 µM tracer +/− 100 μM competing compound). To screen the library, a BioTek MultiFlo FX liquid dispenser was used to dispense 22.5 µL of tracer solution to the top 4 rows and 22.5 µL tracer + competing compound solution to the 4 bottom rows. Plates were briefly mixed on an orbital shaker and incubated for 1.5 h at room temperature. […]

[2] = molecular target: T2, AVPR1B (Homo sapiens, UniProt P47901); test: NanoBRET screen HiBiT-AVPR1B in HEK293; type: binding
T2 construct: purchased Promega (in-house HiBiT-GPCR construct library, NanoBRET)
T2 sequence (P47901 1-424): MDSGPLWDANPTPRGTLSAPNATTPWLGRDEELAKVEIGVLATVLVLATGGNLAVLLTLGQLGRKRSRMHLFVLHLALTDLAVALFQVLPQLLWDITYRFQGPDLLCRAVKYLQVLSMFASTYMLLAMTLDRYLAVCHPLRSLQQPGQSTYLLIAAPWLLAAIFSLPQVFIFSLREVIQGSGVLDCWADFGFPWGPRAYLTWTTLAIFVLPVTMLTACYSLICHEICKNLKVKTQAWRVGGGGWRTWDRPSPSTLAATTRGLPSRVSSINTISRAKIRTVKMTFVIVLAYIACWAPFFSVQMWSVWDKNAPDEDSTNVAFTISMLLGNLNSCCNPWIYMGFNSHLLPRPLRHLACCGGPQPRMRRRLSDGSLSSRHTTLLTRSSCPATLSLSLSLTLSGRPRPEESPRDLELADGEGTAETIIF
Procedure: as §1, §2

Row | Compound | NanoBRET Fold Response ([1]; C3AR1, tracer 0.1μM) | NanoBRET Fold Response ([1]; C3AR1, tracer 1μM) | NanoBRET Fold Response ([2]; AVPR1B, tracer 0.1μM) | NanoBRET Fold Response ([2]; AVPR1B, tracer 1μM) | other results
1 | N#CN=C(NCCCOc1cccc(CN2CCCCC2)c1)NCCNC(=O)CCOCCOCCOCCOCCNC(=O)CCc1ccc2n1[B-](F)(F)[N+]1=C(c3ccc[nH]3)C=CC1=C2 [Aminopotentidine-2-NB590] | 0.99 | 1.04 | 1.09 | 1.04 | 
2 | COc1ccc2c(n1)c(CCNC(C)=O)cn2CCNC(=O)CCc1ccc2n1[B-](F)(F)[N+]1=C(c3ccc[nH]3)C=CC1=C2 [Azamelatonin-1-NB590] |  |  |  |  | NanoBRET Fold Response ([1]; 0.1μM tracer): 0.88; NanoBRET Fold Response ([1]; 1μM tracer): 0.98; NanoBRET Fold Response ([2]; 0.1μM tracer): 0.90; NanoBRET Fold Response ([2]; 1μM tracer): 1.00
3 | CC(C)N(CC[C@H](c1ccccc1)c1cc(CCNC(=O)c2ccc(CNC(=O)CCc3ccc4n3[B-](F)(F)[N+]3=C(c5ccc[nH]5)C=CC3=C4)cc2)ccc1O)C(C)C [Tolterodine-BZ-NB590] | 1.00 | 0.99 | 0.85 | 0.94 | 
4 | CN1CCN(C2=Nc3cc(Cl)ccc3Nc3ccc(CNC(=O)CCOCCOCCOCCOCCNC(=O)CCc4ccc5n4[B-](F)(F)[N+]4=C(c6ccc[nH]6)C=CC4=C5)cc32)CC1 [Clozapine-b-2-NB590] |  |  |  |  | NanoBRET Fold Response ([1]; C3AR1, 0.1μM tracer): 0.99; NanoBRET Fold Response ([1]; C3AR1, 1μM tracer): 1.02; NanoBRET Fold Response ([2]; AVPR1B, 0.1μM tracer): 0.98
